Assay results as given in patent US6136327A, “Stereospecific delivery of a drug using electrotransport” (priority 1997, dated 2000).

Columns and labels:
[1] = transdermal; cited from earlier work
[2] = in vivo
Method: The transport of the R- and S-isomers of ketorolac was evaluated using passive transdermal delivery and electrotransport, in a study conducted in healthy volunteers. Intravenous bolus administration of 24 mg racemic ketorolac served as the reference treatment. The relative amounts of R- and S-ketorolac absorbed following passive transdermal and electrotransport administration were determined relative to intravenous R- and S-ketorolac clearance (assuming that the racemic ketorolac contained equal amounts of the R- and S-isomers).

[3] = clinical; conditions: in vivo; for AUC(0-inf): AUCinf
Method: A study was performed in order to compare the pharmacokinetic parameters of R- and S-ketorolac following intravenous, passive transdermal and electrotransport administration of a racemic mixture of ketorolac.
Twelve healthy male volunteers were enrolled in a pilot feasibility study. Subjects were required to undergo a pre-study screening to evaluate whether they met study inclusion or exclusion criteria. Screening procedures included a medical history, physical exam, electrocardiogram and clinical laboratory tests.
The study was an open-label, randomized, three-treatment crossover pharmacokinetics study designed to compare plasma ketorolac concentrations during 24-hour treatment regimens with an electrotransport system ("ETS"), a (passive) therapeutic transdermal system ("TTS") and intravenous ketorolac bolus injection.
The ketorolac treatments are listed below; there was a washout period of at least 6 days between treatments.
During the ETS (ketorolac) treatment, each subject was expected to receive an estimated 26 mg of ketorolac free acid over a 24-hour period, delivered by electrotransport from a total cathode area of 18 cm^2, based on an estimated in vitro flux rate of 60 μg/cm^2 /h.
Three electrotransport systems, with a total cathode gel area of 18 cm^2, were applied to the upper arms of each subject in this study. Each of the three controllers was set to provide a total direct current of 0.6 mA, which maintained a current density of 100 μA/cm^2.
During TTS treatment, each subject was expected to receive an estimated 50 mg of ketorolac free acid over a 24-hour period, delivered passively through the skin from a total application area of 75 cm^2 based on an estimated in vitro flux rate of 25 to 30 μg/cm^2 /h.
The TTS systems were produced with a backing and protective liner in a 25 cm^2 size. The system formulation contained drug (free acid), ethylene vinyl acetate (40% vinyl acetate), glycerol monolaurate, and Ceraphyl® 31. Three TTS monoliths, with a total surface area of 75 cm^2, were used to deliver the drug. The combined systems contained 135 mg of ketorolac free acid. Because the systems were not self-adhesive, an adhesive overlay was required to ensure good skin contact.
During the intravenous bolus treatment, each subject received a total of 24 mg of ketorolac free acid (36 mg of ketorolac tromethamine salt). Drug was delivered by IV bolus injections of 12 mg of ketorolac free acid (18 mg of ketorolac tromethamine salt) which were administered at Hour 0 and at Hour 12. A 1 mL aliquot of each ketorolac solution was retained directly after syringe preparation and prior to injection.
Initially either the ETS or the TTS was applied, or the first intravenous injection was administered. ETS and TTS treatments continued for 24 hours, and the bolus treatment was completed after the second dose at 12 hours. Blood and urine samples were collected at intervals during a 48-hour period after initiation of each ketorolac treatment regimen.
Blood samples, 7 mL each, were collected from each subject at intervals during the 48 hour period after initiation of treatment.
Plasma levels of ketorolac were determined by HPLC assay, performed at the Clinical Pharmacology Division of the School of Medicine at Indiana University, Wishard Memorial Hospital, Indianapolis, Ind.
Actual blood sample collection times were used for all calculations and data were summarized by nominal sampling times. Plasma ketorolac concentrations below the assay quantification limit of 20 ng/mL were assigned a value of zero.

[4] = in vivo; cited from earlier work

Compound | Plasma Ketorolac Concentrations ([3]; human, 60 min) [ng/mL] | Plasma Ketorolac Concentrations ([3]; human, 90 min) [ng/mL] | Plasma Ketorolac Concentrations ([3]; human, 360 min) [ng/mL] | Plasma Ketorolac Concentrations ([3]; human, 480 min) [ng/mL] | Plasma Ketorolac Concentrations ([3]; human, 720 min) [ng/mL] | Plasma Ketorolac Concentrations ([3]; human, 960 min) [ng/mL] | Plasma Ketorolac Concentrations ([3]; human, 1680 min) [ng/mL] | AUC inf ([3]; human, iv) [ng·h/mL] | Apparent elimination rate constant (k) ([3]; human, iv) [h⁻¹] | C max ([3]; human, iv) [ng/mL] | K2 (elimination rate constant) ([3]; human, iv) [h⁻¹] | Volume ([3]; human, iv) [L] | Plasma Ketorolac Concentrations ([3]; human, iv, 720 min) [ng/mL] | Plasma Ketorolac Concentrations ([3]; human, iv, 14 h) [ng/mL] | AUC(0-inf) ([3]; human, iv) [ng·h/mL] | Amount Delivered (AD), ETS/IV (amount absorbed) ([3]; iv) [mg] | Amount Delivered (AD), TTS/IV (amount absorbed) ([3]; iv) [mg] | K1 (distribution rate constant) ([3]; iv) [h⁻¹] | clearance, R- vs S-ketorolac ([3]; iv) | also measured
phenylpropanolamine |  |  |  |  |  |  |  |  |  |  |  |  |  |  |  |  |  |  |  | flux rates of individual purified isomers [1]: nearly identical flux rates
O=C(c1ccccc1)c1ccc2n1CC[C@@H]2C(=O)O [S-ketorolac] | 0.0 | 0.0 | 0.0 | 0.0 | 0.0 | 0.0 | 0.0 | 1566 | 0.41 | 404 | 0.35 | 10.33 | 0.0 | 113.0 | 1560 | 11.65 | 4.76 | 2.10 | differed | S/R ratio of amount absorbed, mean [2]: 1.15; S/R ratio of amount absorbed, median [2]: 1.18; S/R ratio of amount absorbed, range [2]: 0.8-1.43; Plasma Ketorolac Concentrations ([3]; human, 1200 min): 0.0 ng/mL; Plasma Ketorolac Concentrations ([3]; human, 1440 min): 0.0 ng/mL; Plasma Ketorolac Concentrations ([3]; human, 1470 min): 0.0 ng/mL; Plasma Ketorolac Concentrations ([3]; human, 1500 min): 0.0 ng/mL; Plasma Ketorolac Concentrations ([3]; human, 1560 min): 0.0 ng/mL; T max ([3]; human, iv): 0.5 h; Plasma Ketorolac Concentrations ([3]; human, iv, 240 min): 0.0 ng/mL; Plasma Ketorolac Concentrations ([3]; human, iv, 360 min): 0.0 ng/mL; Plasma Ketorolac Concentrations ([3]; human, iv, 480 min): 0.0 ng/mL; Plasma Ketorolac Concentrations ([3]; human, iv, 1080 min): 0.0 ng/mL; Plasma Ketorolac Concentrations ([3]; human, iv, 1200 min): 0.0 ng/mL; Plasma Ketorolac Concentrations ([3]; human, iv, 1440 min): 0.0 ng/mL; Plasma Ketorolac Concentrations ([3]; human, topical or ocular, 16 h): 58.0 ng/mL; Plasma Ketorolac Concentrations ([3]; human, topical or ocular, 28 h): 21.0 ng/mL; clearance vs other enantiomer [4]: more rapid clearance than the other enantiomer
O=C(c1ccccc1)c1ccc2n1CC[C@H]2C(=O)O [R-ketorolac] | 0.0 | 0.0 | 0.0 | 0.0 | 0.0 | 0.0 | 0.0 | 6171 | 0.125 | 872 | 0.15 | 5.4 | 0.0 | 386.0 | 6250 | 7.9 | 4.96 | 1.54 | differed | Plasma Ketorolac Concentrations ([3]; human, 240 min): 0.0 ng/mL; Plasma Ketorolac Concentrations ([3]; human, 1920 min): 0.0 ng/mL; Plasma Ketorolac Concentrations ([3]; human, 2880 min): 0.0 ng/mL; AUC(0-inf) ([3]; human): 5640 ng·h/mL; Apparent half-life (t1/2) ([3]; human, iv): 4.3 h; k el ([3]; human, iv, Apparent elimination rate constant (k)): 3.89e-05 s⁻¹; half-life ([3]; human, iv, Apparent half-life (t1/2)): 5 h; Plasma Ketorolac Concentrations ([3]; human, topical or ocular, 1.5 h): 37.0 ng/mL; Plasma Ketorolac Concentrations ([3]; human, topical or ocular, 12 h): 67.0 ng/mL; Plasma Ketorolac Concentrations ([3]; human, topical or ocular, 20 h): 29.0 ng/mL; Plasma Ketorolac Concentrations ([3]; human, topical or ocular, 24.5 h): 211.0 ng/mL; plasma concentrations during TTS compared with ETS [3]: lower than those observed during ETS administration; T max ([3]; iv): 0.5 h
